From PMC5510229, “BCAT1 controls metabolic reprogramming in activated human macrophages and is associated with inflammatory diseases” (Nature Communications, 2017)

What was measured:
[1] = system: mouse bone marrow derived macrophages (BMDMs); assay: BMDM cell number (CyQuant); assay type: cell-based, C57BL/6 mouse; settings: treatment for 24 h
Source text: Figure 6 ERG240 treatment results in reduced macrophage infiltration in CIA and crescentic glomerulonephritis. (a) Inhibition of murine BMDM migration in vitro in the presence of different concentrations of ERG240 by transwell migration assay (left panel, results are presented as the average of four experiments). The drug had no effect on cell viability (right panel, results are presented as the average of three experiments). (b) IHC analysis of CIA joints for expression of F4/80. Representative images show F4/80+ cells (indicated with an arrow). F4/80+ cell quantification is shown on the right panel. (c) Representative images showing glomerular ED1 (rat CD68)-positive cells in ERG240 treated animals following NTN. Percentage of glomerular ED1-positive cell quantification is shown on the right panel. Error bars are s.e.m. […]
The migration of BMDMs was assessed using a modified Bo yden chamber methodology. […]
To determine the effect of ERG240 on the total number of BMDMs, cell s were plated onto a 96-well plate at a density of 5,000 cells per well in complete media and allowed to adhere overnight. The cells were then exposed to various drug concentrations overnight and the cell population was quantified with CyQuant Cell Proliferation kit (Life Technologies) using triplicates, in two independent experiments. For hMDMs, cell viability was determined using the alamarBlue® Assa y (Invitrogen). […]

[2] = Uptake and metabolism of ERG240 in human macrophage lysates by GC/MS; assay type: in vitro ADME
Source text: NCOMMS-16-23550_Point by Point Responses Papathanassiu et al.
Add additional explanation for “extracellular space” findings because this is unclear.
Authors’ reply. ‘Extracellular space’ has now been replaced by ‘extracellular matrix genes’ in the revised manuscript (Figure 3 in the submitted manuscript which is now Figure 4 in the revised one). We have also added a Volcano plot showing the differentially expressed genes (Figure 4E in the revised manuscript).
Authors fail to cite and discuss this paper found in quick google search “ Nemeth, B.; Doczi, J.; Csete, D.; Kacso, G.; Ravasz, D.; Adams, D.; Kiss, G.; Nagy, A. M.; Horvath, G.; Tretter, L.; Mocsai, A.; Csepanyi-Komi, R.; Iordanov, I.; Adam-Vizi, V.; Chinopoulos, C. (2015).
“Abolition of mitochondrial substrate-level phosphorylation by itaconic acid produced by LPS-induced Irg1 expression in cells of murine macrophage lineage”. The FASEB Journal.
Authors’ reply. This paper is now cited and discussed by adding this following paragraph to the discussion (highlighted text).
Besides its antimicrobial effects, itaconate has been proposed as an inhibitor of substrate level phosphorylation (SLP) through its effect on succinate-CoA ligase in RAW-264.7 cells1.
Statistical analysis (or indications in figures) is lacking in Fig 1C. Fig 4C.
Authors’ reply. Statistical analyses are added for Fig 1C and 4C. Please note that Figure
4C is now Figure 5C in the revised manuscript. (See also highlighted text in figure legends).
Dosing in vitro should be discussed further- 20mM in vitro is a high dose if IC50 is in nM […]
Authors’ reply. ERG240 is a structural analogue of leucine, designed based on the X-ray crystal structure of BCAT1 and, as the reviewer correctly states, it can inhibit BCAT1 within 0.1-1nM range of IC50. The concentration of 20 mM used in the cellular assays is because […]
possible competition with leucine, which is in mM concentration (0.381 mM) in the RPMI media used throughout the study. […]
A cartoon of metabolites regulated would aid the reader. […]
ERG240 can easily be detected […]

## CC(=O)C(C)CCC(=O)O (stereo not shown) [ERG240]
[1]
  BMDM cell numbers: did not affect cell numbers
[2]; 1x10^6 cells treated with 3.28 mg ERG240 (20 mM)
  uptake of the compound by cells: 0.8 to 3 ng
[2]; human macrophages treated with 20 mM
  estimated intracellular ERG240 concentration: 70 to 260 nM
[2]; lysates of human macrophages, GC/MS
  cellular metabolism of the drug: does not undergo any cellular metabolic reaction
